In ChEMBL document CHEMBL1137231, “Efficient evaluation of binding free energy using continuum electrostatics solvation” (J Med Chem, 2004) one finds Ki data, which are given here for 34 compounds.

Numbered stars: 1 amine (or outer) side, 2 acyl side, 3 side chain; on linkers, the order of the positions; unused ones are H or OH. Square brackets hold non-standard residues; d marks the D form. Peptide text beside a SMILES is read from it. * marks the point of attachment. Hexanoyl(5S-NH,4S-OH,6-Ph) = O=C(CC[C@H](O)[C@H](Cc1ccccc1)N[*:1])[*:2]; X3 = O=C([C@H](Cc1ccccc1)C[C@H](O)[C@H](Cc1ccccc1)N[*:1])[*:2]; X4 = CC(C)C[C@H](C[C@H](O)[C@H](Cc1ccccc1)N[*:1])C(=O)[*:2]; X1 = CCC[C@H](C[C@H](O)[C@H](Cc1ccccc1)N[*:1])C(=O)[*:2]; X2 = C[C@H](C[C@H](O)[C@H](Cc1ccccc1)N[*:1])C(=O)[*:2]; Cbz = O=C(OCc1ccccc1)*

What is called Ki is a measure of affinity in units of concentration, obtained from inhibition or displacement. Read a high Ki as lower affinity.

The target of the first assay is Human immunodeficiency virus type 1 protease (Human immunodeficiency virus 1, UniProt Q72874). Kind of assay: Binding affinity towards human immunodeficiency virus type 1 protease determined using continuum electrostatics solvation.
In turn, `CC(NC(=O)OCc1ccccc1)C(=O)NC(Cc1ccccc1)[C@@H](O)CCC(=O)NC(C(N)=O)C(C)C` (some centres undefined) returned a Ki of 2500 nM.
As for `COC(=O)C(NC(=O)C(NC(=O)[C@H](CC(C)C)C[C@H](O)C(Cc1ccccc1)NC(=O)C(C)NC(=O)OCc1ccccc1)C(C)C)C(C)C` (some centres undefined), the inhibition constant Ki was 0.9 nM.
`CCC[C@H](C[C@H](O)C(Cc1ccccc1)NC(=O)OC(C)(C)C)C(=O)NC(C(N)=O)C(C)C` (some centres undefined) showed a Ki of 50 nM.
The same measure, in the same setting: the figure for `CC(NC(=O)OCc1ccccc1)C(=O)NC(Cc1ccccc1)[C@@H](O)C[C@@H](C)C(=O)NC(C(N)=O)C(C)C` (some centres undefined) is 50 nM; for `CC(NC(=O)OCc1ccccc1)C(=O)NC(Cc1ccccc1)[C@@H](O)C[C@@H](Cc1ccccc1)C(=O)NC(C(N)=O)C(C)C` (some centres undefined) it is 0.6 nM.
Same read-out and setting: for `COC(=O)C(NC(=O)C(NC(=O)[C@H](Cc1ccccc1)C[C@H](O)C(Cc1ccccc1)NC(=O)C(C)NC(=O)OCc1ccccc1)C(C)C)C(C)C` (some centres undefined) the value was 0.6 nM.
Same read-out and setting: the figure for `COC(=O)C(NC(=O)C(NC(=O)[C@H](C)C[C@H](O)C(Cc1ccccc1)NC(=O)C(C)NC(=O)OCc1ccccc1)C(C)C)C(C)C` (some centres undefined) is 1.6 nM; for `CC(C)C[C@H](C[C@H](O)C(Cc1ccccc1)NC(=O)C(C)NC(=O)OCc1ccccc1)C(=O)NC(C(N)=O)C(C)C` (some centres undefined) it is 3.9 nM.
`CC(C)C(NC(=O)[C@H](C)C[C@H](O)C(Cc1ccccc1)NC(=O)OC(C)(C)C)C(N)=O` (some centres undefined) showed a Ki of 260 nM.
Turning to `CC(C)C[C@H](C[C@H](O)C(Cc1ccccc1)NC(=O)OC(C)(C)C)C(=O)NC(C(N)=O)C(C)C` (some centres undefined), affinity was put at a Ki of 23 nM.
As to `CC(C)C(NC(=O)CC[C@H](O)C(Cc1ccccc1)NC(=O)OC(C)(C)C)C(N)=O` (some centres undefined), the Ki is 6500 nM.
Same read-out and setting: for `COC(=O)C(NC(=O)C(NC(=O)CC[C@H](O)C(Cc1ccccc1)NC(=O)C(C)NC(=O)OCc1ccccc1)C(C)C)C(C)C` (some centres undefined) the value was 118 nM; for `CCC[C@H](C[C@H](O)C(Cc1ccccc1)NC(=O)C(C)NC(=O)OCc1ccccc1)C(=O)NC(C(=O)NC(C(=O)OC)C(C)C)C(C)C` (some centres undefined), 0.6 nM.
In turn, `CC(C)C(NC(=O)[C@H](Cc1ccccc1)C[C@H](O)C(Cc1ccccc1)NC(=O)OC(C)(C)C)C(N)=O` (some centres undefined) gave a Ki of 1.4 nM.
Still for that read-out and setting: for `CCC[C@H](C[C@H](O)C(Cc1ccccc1)NC(=O)C(C)NC(=O)OCc1ccccc1)C(=O)NC(C(N)=O)C(C)C` (some centres undefined) the value was 20 nM; for `COC(=O)[C@@H](NC(=O)[C@@H](NC(=O)CC[C@H](O)[C@H](Cc1ccccc1)NC(=O)[C@H](C)NC(=O)[C@H](C)NC(=O)OCc1ccccc1)C(C)C)C(C)C` (Cbz-AA[Hexanoyl(5S-NH,4S-OH,6-Ph)]VV-OMe), 44 nM; for `CCC[C@H](C[C@H](O)[C@H](Cc1ccccc1)NC(=O)[C@H](C)NC(=O)[C@H](C)NC(=O)OCc1ccccc1)C(=O)N[C@H](C(=O)N[C@H](C(=O)OC)C(C)C)C(C)C` (Cbz-AA[X1]VV-OMe), 0.4 nM.
Still for that read-out and setting: for `COC(=O)[C@@H](NC(=O)[C@@H](NC(=O)[C@H](C)C[C@H](O)[C@H](Cc1ccccc1)NC(=O)[C@H](C)NC(=O)[C@H](C)NC(=O)OCc1ccccc1)C(C)C)C(C)C` (Cbz-AA[X2]VV-OMe) the value was 0.6 nM.
Take `COC(=O)[C@@H](NC(=O)[C@@H](NC(=O)[C@H](Cc1ccccc1)C[C@H](O)[C@H](Cc1ccccc1)NC(=O)[C@H](C)NC(=O)[C@H](C)NC(=O)OCc1ccccc1)C(C)C)C(C)C` (Cbz-AA[X3]VV-OMe): affinity was put at a Ki of 0.4 nM.
Same read-out and setting: for `COC(=O)[C@@H](NC(=O)[C@@H](NC(=O)[C@H](CC(C)C)C[C@H](O)[C@H](Cc1ccccc1)NC(=O)[C@H](C)NC(=O)[C@H](C)NC(=O)OCc1ccccc1)C(C)C)C(C)C` (Cbz-AA[X4]VV-OMe) the value was 0.8 nM; for `COC(=O)[C@@H](NC(=O)[C@@H](NC(=O)CC[C@H](O)[C@H](Cc1ccccc1)NC(=O)[C@H](C)NC(=O)[C@H](C)N)C(C)C)C(C)C` (H-AA[Hexanoyl(5S-NH,4S-OH,6-Ph)]VV-OMe), 4 nM.
Still for that read-out and setting: for `CCC[C@H](C[C@H](O)[C@H](Cc1ccccc1)NC(=O)[C@H](C)NC(=O)[C@H](C)N)C(=O)N[C@H](C(=O)N[C@H](C(=O)OC)C(C)C)C(C)C` (H-AA[X1]VV-OMe) the value was 1.2 nM.
Still for that read-out and setting: for `COC(=O)[C@@H](NC(=O)[C@@H](NC(=O)[C@H](C)C[C@H](O)[C@H](Cc1ccccc1)NC(=O)[C@H](C)NC(=O)[C@H](C)N)C(C)C)C(C)C` (H-AA[X2]VV-OMe) the value was 3 nM; for `COC(=O)[C@@H](NC(=O)[C@@H](NC(=O)[C@H](CC(C)C)C[C@H](O)[C@H](Cc1ccccc1)NC(=O)[C@H](C)NC(=O)[C@H](C)N)C(C)C)C(C)C` (H-AA[X4]VV-OMe), 0.6 nM.

The target in another assay is Beta-secretase 1 (Homo sapiens, UniProt P56817). Kind of assay: Binding affinity towards Beta-secretase determined using continuum electrostatics solvation.
Chain of Beta-secretase 1 (P56817 whole entry): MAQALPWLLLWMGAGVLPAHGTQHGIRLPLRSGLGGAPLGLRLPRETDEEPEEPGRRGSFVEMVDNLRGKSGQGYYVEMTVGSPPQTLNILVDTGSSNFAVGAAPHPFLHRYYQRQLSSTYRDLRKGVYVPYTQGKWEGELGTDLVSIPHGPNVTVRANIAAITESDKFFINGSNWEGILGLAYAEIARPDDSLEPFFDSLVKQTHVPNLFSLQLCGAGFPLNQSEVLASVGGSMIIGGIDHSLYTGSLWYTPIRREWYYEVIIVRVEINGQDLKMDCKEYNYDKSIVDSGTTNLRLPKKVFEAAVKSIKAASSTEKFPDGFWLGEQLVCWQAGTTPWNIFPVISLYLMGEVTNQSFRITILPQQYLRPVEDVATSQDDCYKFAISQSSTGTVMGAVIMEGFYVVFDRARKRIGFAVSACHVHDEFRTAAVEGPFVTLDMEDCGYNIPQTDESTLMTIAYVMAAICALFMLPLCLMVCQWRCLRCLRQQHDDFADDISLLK
`CC(C)C[C@H](NC(=O)[C@@H](NC(=O)OC(C)(C)C)C(N)=O)C(O)CC(C)C(=O)N[C@@H](C)C(=O)NCc1ccccc1` (some centres undefined) showed a Ki of 22400 nM.
As for `CSCCC(NC(=O)[C@@H](NC(=O)OC(C)(C)C)C(C)C)C(=O)N[C@@H](CC(C)C)C(O)CC(C)C(=O)N[C@H](C(=O)NCc1ccccc1)C(C)C` (some centres undefined), the Ki stood at 2.5 nM.
Still for that read-out and setting: for `CC(C)C[C@H](NC(=O)[C@@H](NC(=O)OC(C)(C)C)C(N)=O)C(O)CC(C)C(=O)N[C@H](C(=O)NCc1ccccc1)C(C)C` (some centres undefined) the value was 3130 nM.
Still for that read-out and setting: the figure for `CC(C)C[C@H](NC(=O)C(NC(=O)[C@@H](NC(=O)OC(C)(C)C)C(C)C)C(N)=O)C(O)CC(C)C(=O)N[C@H](C(=O)NCc1ccccc1)C(C)C` (some centres undefined) is 5.9 nM; for `CC(C)C[C@H](NC(=O)C(CS(C)(=O)=O)NC(=O)[C@@H](NC(=O)OC(C)(C)C)C(C)C)C(O)CC(C)C(=O)N[C@H](C(=O)NCc1ccccc1)C(C)C` (some centres undefined) it is 9.4 nM; for `CC(C)C[C@H](NC(=O)C(NC(=O)[C@@H](NC(=O)OC(C)(C)C)C(C)C)C(N)=O)C(O)CC(C)C(=O)N[C@@H](C)C(=O)NCc1ccccc1` (some centres undefined) it is 61.4 nM.
`CSCCC(NC(=O)OC(C)(C)C)C(=O)N[C@@H](CC(C)C)C(O)CC(C)C(=O)N[C@H](C(=O)NCc1ccccc1)C(C)C` (some centres undefined) registered a Ki of 58.8 nM.
The same measure, in the same setting: the figure for `CC(C)C[C@H](NC(=O)[C@H](CS(C)(=O)=O)NC(=O)OC(C)(C)C)C(O)CC(C)C(=O)N[C@H](C(=O)NCc1ccccc1)C(C)C` (some centres undefined) is 1130 nM; for `CC(C)C[C@H](NC(=O)[C@@H](N)CCC(=O)O)C(=O)N[C@@H](CC(=O)O)C(=O)N[C@@H](CC(C)C)C(=O)C(O)CN[C@@H](C)C(=O)N[C@H](C(=O)N[C@@H](CCC(=O)O)C(=O)N[C@@H](Cc1ccccc1)C(=O)O)C(C)C` (some centres undefined) it is 0.3 nM.
Still for that read-out and setting: the figure for `CSCC(NC(=O)[C@@H](NC(=O)OC(C)(C)C)C(C)C)C(=O)N[C@@H](CC(C)C)C(O)CC(C)C(=O)N[C@H](C(=O)NCc1ccccc1)C(C)C` (some centres undefined) is 50.1 nM.
